This passage reports EC50 and IC50 results from US7326698B2, “Prostaglandin analogs” (Allergan, Inc., priority 2004, dated 2008).

pIC50: −log10 of the molar value.

One test addresses T1, hEP4/Gqs5 (Homo sapiens, UniProt P35408).
T1 construct: expressed in transfected cells; host or cells: HEK-293(EBNA)
Briefly: FLIPR calcium signal, HEK-293(EBNA) cells. Format: cell-based. Particulars: read-out: Functional Data (EC50 in nM) hEP4. The method, then:
(§1) Methods for FLIPR™ Studies
(§2) HEK-293(EBNA) cells, stably expressing one type or subtype of recombinant human prostaglandin receptors (prostaglandin receptors expressed: hDP/Gqs5; hEP1; hEP2/Gqs5; hEP3A/Gqi5; hEP4/Gqs5; hFP; hIP; hTP), are cultured in 100 mm culture dishes in high-glucose DMEM medium containing 10% fetal bovine serum, 2 mM 1-glutamine, 250 μg/ml geneticin (G418) and 200 μg/ml hygromycin B as selection markers, and 100 units/ml penicillin G, 100 μg/ml streptomycin and 0.25 μg/ml amphotericin B.
(§3) (b) Calcium Signal Studies On the FLIPR™
(§4) Cells are seeded at a density of 5×10^4 cells per well in Biocoat® Poly-D-lysine-coated black-wall, clear-bottom 96-well plates (Becton-Dickinson) and allowed to attach overnight in an incubator at 37° C. Cells are then washed two times with HBSS-HEPES buffer (Hanks Balanced Salt Solution without bicarbonate and phenol red, 20 mM HEPES, pH 7.4) using a Denley Cellwash plate washer (Labsystems). After 45 minutes of dye-loading in the dark, using the calcium-sensitive dye Fluo-4 AM at a final concentration of 2 μM, plates are washed four times with HBSS-HEPES buffer to remove excess dye leaving 100 μl in each well. Plates are re-equilibrated to 37° C. for a few minutes.
(§5) Cells are excited with an Argon laser at 488 nm, and emission is measured through a 510-570 nm bandwidth emission filter (FLIPR™, Molecular Devices, Sunnyvale, Calif.). Drug solution is added in a 50 μl volume to each well to give the desired final concentration. The peak increase in fluorescence intensity is recorded for each well. On each plate, four wells each serve as negative (HBSS-HEPES buffer) and positive controls (standard agonists: BW245C (hDP); PGE2 (hEP1; hEP2/Gqs5; hEP3A/Gqi5; hEP4/Gqs5); PGF2α, (hFP); carbacyclin (hIP); U-46619 (hTP), depending on receptor). The peak fluorescence change in each drug-containing well is then expressed relative to the controls.
(§6) Compounds are tested in a high-throughput (HTS) or concentration-response (CoRe) format. In the HTS format, forty-four compounds per plate are examined in duplicates at a concentration of 10^−5 M. To generate concentration-response curves, four compounds per plate are tested in duplicates in a concentration range between 10^−5 and 10^−11 M. The duplicate values are averaged. In either, HTS or CoRe format each compound is tested on at least 3 separate plates using cells from different passages to give an n≧3.

The target in the next test is T2, hTP (Homo sapiens, UniProt P21731).
T2 construct: expressed in transfected cells; host or cells: HEK-293(EBNA)
T2 sequence (P21731 1-343): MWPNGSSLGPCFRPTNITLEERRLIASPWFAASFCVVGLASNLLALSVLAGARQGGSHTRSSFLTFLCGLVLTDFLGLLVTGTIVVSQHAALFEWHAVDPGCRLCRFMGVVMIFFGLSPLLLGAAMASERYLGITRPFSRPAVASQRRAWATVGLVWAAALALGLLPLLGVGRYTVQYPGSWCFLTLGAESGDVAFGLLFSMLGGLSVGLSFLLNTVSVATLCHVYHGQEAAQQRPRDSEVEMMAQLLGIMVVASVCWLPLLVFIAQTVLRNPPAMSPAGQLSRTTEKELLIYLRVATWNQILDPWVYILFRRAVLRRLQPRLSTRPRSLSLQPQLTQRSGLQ
Briefly: FLIPR calcium signal, HEK-293(EBNA) cells. Format: cell-based. The settings on record: read-out: Functional Data (EC50 in nM) hTP. The method, then:
as §1, §2, §3, §4, §5, §6

In a further test the target is T3, hEP4 (Homo sapiens, UniProt P35408).
T3 construct: expressed in transfected cells; host or cells: HEK-293 (membrane fraction)
Briefly: Radioligand binding, HEK-293 cells stably expressing EP4 receptor. The settings on record: competition vs 5 nM [3H]-PGE2. As for the experimental part: Cells Stably Expressing EP1, EP2, EP4 and FP Receptors
HEK-293 cells stably expressing the human or feline FP receptor, or EP1, EP2, or EP4 receptors are washed with TME buffer, scraped from the bottom of the flasks, and homogenized for 30 sec using a Brinkman PT 10/35 polytron. TME buffer is added to achieve a final 40 ml volume in the centrifuge tubes (the composition of TME is 100 mM TRIS base, 20 mM MgCl2, […]; 10N HCl is added to achieve a pH of 7.4).
The cell homogenate is centrifuged at 19000 r.p.m. for 20 min at 4° C. using a Beckman Ti-60 rotor. The resultant pellet is resuspended in TME buffer to give a final 1 mg/ml protein concentration, as determined by Biorad assay. Radioligand binding competition assays vs. [^3H-]17-phenyl PGF2[…](5 nM) are performed in a 100 μl volume for 60 min. Binding reactions are started by adding plasma membrane fraction. The reaction is terminated by the addition of 4 ml ice-cold TRIS-HCl buffer and rapid filtration through glass fiber GF/B filters using a Brandel cell harvester. The filters are washed 3 times with ice-cold buffer and oven dried for one hour.
[^3H-] PGE2 (specific activity 180 Ci mmol) is used as the radioligand for EP receptors. [^3H] 17-phenyl PGF2[…]is employed for FP receptor binding studies. […] 17-phenyl PGF2[…]and non-specific binding determined with 10^−5M of unlabeled PGE2, or 17-phenyl PGF2[…], according to receptor subtype studied.

The target in the next test is T4, hEP3A/Gqi5 (Homo sapiens, UniProt P43115).
T4 construct: expressed in transfected cells; host or cells: HEK-293(EBNA)
T4 sequence (P43115 1-390): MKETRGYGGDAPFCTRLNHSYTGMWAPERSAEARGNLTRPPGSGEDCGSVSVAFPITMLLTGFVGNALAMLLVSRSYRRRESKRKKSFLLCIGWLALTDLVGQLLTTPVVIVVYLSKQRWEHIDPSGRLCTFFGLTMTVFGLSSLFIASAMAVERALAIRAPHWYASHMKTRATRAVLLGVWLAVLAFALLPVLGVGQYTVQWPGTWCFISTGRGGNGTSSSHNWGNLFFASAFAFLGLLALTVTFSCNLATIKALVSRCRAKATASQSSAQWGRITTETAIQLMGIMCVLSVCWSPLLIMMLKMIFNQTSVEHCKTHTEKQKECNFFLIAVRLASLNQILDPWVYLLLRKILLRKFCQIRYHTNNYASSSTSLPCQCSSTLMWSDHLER
Nature of the test: FLIPR calcium signal, HEK-293(EBNA) cells. Particulars: read-out: Functional Data (EC50 in nM) hEP3A. In kind it is cell-based. As for the experimental part:
as §1, §2, §3, §4, §5, §6

Another test has as its target T5, hIP (Homo sapiens, UniProt P43119).
T5 construct: expressed in transfected cells; host or cells: HEK-293(EBNA)
Nature of the test: FLIPR calcium signal, HEK-293(EBNA) cells. Particulars: read-out: Functional Data (EC50 in nM) hIP. In kind it is cell-based. The method, then: as §1, §2, §3, §4, §5, §6

T1 sequence (P35408 whole entry): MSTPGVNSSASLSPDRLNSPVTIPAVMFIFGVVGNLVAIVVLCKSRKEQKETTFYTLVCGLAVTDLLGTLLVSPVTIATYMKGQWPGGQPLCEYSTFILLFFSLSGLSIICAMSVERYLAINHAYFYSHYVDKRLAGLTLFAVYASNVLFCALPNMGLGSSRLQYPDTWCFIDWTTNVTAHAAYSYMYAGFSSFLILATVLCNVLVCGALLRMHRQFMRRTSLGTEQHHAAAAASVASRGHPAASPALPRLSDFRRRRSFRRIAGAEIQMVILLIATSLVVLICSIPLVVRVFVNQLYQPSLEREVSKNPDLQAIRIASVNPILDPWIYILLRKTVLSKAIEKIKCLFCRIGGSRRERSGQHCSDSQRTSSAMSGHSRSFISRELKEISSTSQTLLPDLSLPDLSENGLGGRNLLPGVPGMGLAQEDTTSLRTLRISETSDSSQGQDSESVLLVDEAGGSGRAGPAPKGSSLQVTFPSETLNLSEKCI
T3 sequence (P35408 whole entry): as above
T5 sequence (P43119 whole entry): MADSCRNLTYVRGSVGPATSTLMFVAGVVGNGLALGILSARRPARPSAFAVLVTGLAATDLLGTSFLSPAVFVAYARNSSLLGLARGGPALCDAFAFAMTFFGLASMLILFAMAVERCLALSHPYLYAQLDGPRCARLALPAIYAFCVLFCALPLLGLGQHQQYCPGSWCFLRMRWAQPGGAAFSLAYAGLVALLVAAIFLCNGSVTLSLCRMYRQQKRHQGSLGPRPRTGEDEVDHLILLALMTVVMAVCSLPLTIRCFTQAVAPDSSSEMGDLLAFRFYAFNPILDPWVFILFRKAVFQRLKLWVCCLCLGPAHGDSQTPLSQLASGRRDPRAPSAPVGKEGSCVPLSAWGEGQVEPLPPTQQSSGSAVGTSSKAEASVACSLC

The EC50 is the concentration that produces a half-maximal response. In the case of `O=C(O)CCCC#CCN1C(=O)CCCCC1C=CC(=O)Cc1ccccc1` (centres unmarked), the EC50 on hEP4/Gqs5 was more than 10000 nM. Consider `O=C(O)CCCCCCN1C(=O)CCCCC1C=CC(O)Cc1ccccc1` (centres unmarked), for which the EC50 at hEP4/Gqs5 was more than 10000 nM. Regarding `COC(=O)CCC/C=C\CN1C(=O)CCCCC1C=CC(O)Cc1ccccc1` (centres unmarked), the EC50 at hEP4/Gqs5 was more than 10000 nM. In the case of `COC(=O)CCCCCCN1C(=O)CCCCC1CCC(=O)Cc1ccccc1` (centres unmarked), the EC50 on hEP4/Gqs5 is more than 10000 nM.

With `COC(=O)CCCC#CCN1C(=O)CCCCC1C=CC(O)Cc1ccccc1` (centres unmarked), on hEP4/Gqs5, the EC50 turned out to be 3080 nM. `O=C(O)CCCC#CCN1C(=O)CCCCC1CCC(=O)Cc1ccccc1` (centres unmarked): the EC50 on hEP4/Gqs5 was found to be 2390 nM; at hTP it was 41 nM.

Take `O=C(O)CCCC#CCN1C(=O)CCCCC1CCC(O)Cc1ccccc1` (centres unmarked): the EC50 is 2000 nM at hEP4/Gqs5 and 112 nM on hTP. What is called pIC50 is −log10 of the IC50, conventionally taken in molar units. Lower therefore signals a high IC50. Molecule `COC(=O)CCC/C=C\CN1C(=O)CCCCC1CCC(=O)Cc1ccccc1` (centres unmarked) had a negative logarithm of the IC50 (pIC50) at hEP4 of less than 5.00. In addition, at hEP4/Gqs5, the EC50 stood at 13300 nM. Turning to `O=C(O)CCC/C=C\CN1C(=O)CCCCC1CCC(=O)Cc1ccccc1` (centres unmarked), the EC50 on hEP4/Gqs5 is more than 10000 nM. For `COC(=O)CCCCCCN1C(=O)CCCCC1CCC(O)Cc1ccccc1` (centres unmarked), the concentration for a half-maximal effect (EC50) on hEP3A/Gqi5 is more than 10000 nM; on hEP4/Gqs5, 3280 nM. `O=C(O)CCCCCCN1C(=O)CCCCC1CCC(O)Cc1ccccc1` (centres unmarked): the EC50 amounted to 451 nM at hEP4/Gqs5, 1640 nM at hIP and 549 nM at hTP.

Turning to `O=C(O)CCCCCCN1C(=O)CCCCC1CCC(=O)Cc1ccccc1` (centres unmarked), the EC50 at hEP4/Gqs5 is more than 10000 nM. For `COC(=O)CCCCCCN1C(=O)CCCCC1C=CC(=O)Cc1ccccc1` (centres unmarked), the EC50 on hEP4/Gqs5 was more than 10000 nM. On the same count and under the same terms, for `COC(=O)CCCC#CCN1C(=O)CCCCC1CCC(=O)Cc1ccccc1` (centres unmarked) the value was more than 10000 nM. `O=C(O)CCCCCCN1C(=O)CCCCC1C=CC(=O)Cc1ccccc1` (centres unmarked): the EC50 at hEP4/Gqs5 was more than 10000 nM. Regarding `O=C(O)CCCC#CCN1C(=O)CCCCC1C=CC(O)Cc1ccccc1` (centres unmarked), the EC50 on hEP4/Gqs5 was found to be 1230 nM; at hTP, 278 nM. Turning to `COC(=O)CCCCCCN1C(=O)CCCCC1C=CC(O)Cc1ccccc1` (centres unmarked) [drawing 40], at hEP4/Gqs5, the concentration for a half-maximal effect (EC50) was more than 10000 nM.

Turning to `COC(=O)CCCC#CCN1C(=O)CCCCC1C=CC(=O)Cc1ccccc1` (centres unmarked), on hEP4/Gqs5, the concentration giving a half-maximal response (EC50) was more than 10000 nM.

Regarding `O=C(O)CCC/C=C\CN1C(=O)CCCCC1C=CC(O)Cc1ccccc1` (centres unmarked), the half-maximal effective concentration (EC50) at hEP4/Gqs5 was 266 nM; at hTP, 221 nM. As for `COC(=O)CCC/C=C\CN1C(=O)CCCCC1CCC(O)Cc1ccccc1` (centres unmarked), on hEP4/Gqs5, the concentration for a half-maximal effect (EC50) amounted to 2140 nM.

As for `COC(=O)CCCC#CCN1C(=O)CCCCC1CCC(O)Cc1ccccc1` (centres unmarked), on hEP4/Gqs5, the EC50 was more than 10000 nM. Same read-out and setting: for `COC(=O)CCCCCCN1C(=O)CCCCC1C=CC(O)Cc1ccccc1` (centres unmarked) [drawing 36] the value was more than 10000 nM.

At hEP4, `O=C(O)CCC/C=C\CN1C(=O)CCCCC1CCC(O)Cc1ccccc1` (centres unmarked) showed a negative-log IC50 (pIC50) of less than 5.00. In addition, the half-maximal effective concentration (EC50) at hEP4/Gqs5 was found to be 116 nM.
